# Data as given in patent US20150283259A1, “DRUG-PROTEIN CONJUGATES” (priority 2012, published 2015).
# What was measured:
# [1] = test system: HER2-positive SK-BR-3 cells; assay: In vitro cell viability assay (Cell-Titer Glo Luminescence), HER2-positive cells; assay type: cell-based; conditions: 96 h incubation, 40-0.018 nM, 2-fold dilutions, viability as % of untreated cells
# Description: (§1) The in vitro efficacy of the antibody and Fab conjugates prepared in Examples 3 and 4 respectively were determined by measuring the inhibitory effect on cell growth of HER-2 receptor over-expressing cancer cell lines.
# (§2) Loss of tumour cell viability following treatment with cytotoxic drugs or ADCs in vitro can be measured by growing cell lines in the presence of increasing concentrations of drugs or ADCs and quantifying the loss of proliferation or metabolic activity using Cell-Titer Glo® Luminescence reagent (Promega Corp. Technical Bullettin TB288; Lewis Phillips G. D, Cancer Res 2008; 68:9280-9290). […]
# (§3) HER2-positive SK-BR-3 and HER2-negative MCF-7 cells were trypsinised with 3 mL Trypsin EDTA for 5-15 min. […] Cells were counted using a Neubauer haemocytometer and adjusted to a cell density of 3×10^4/mL for MCF-7 and 5×10^4/mL for SK-BR-3 respectively. […]
# (§4) The cell viability assay was carried out using the Cell-Titer Glo® Luminescence reagent, as described by the manufacturer's instructions, (Promega Corp. Technical Bulletin TB288; Lewis Phillips G. D, Cancer Res 2008; 68:9280-9290). […]
# (§5) Luminescence was recorded using a plate reader (e.g. MD SpectramaxM3 plate reader), and data subsequently analysed using a four parameter non-linear regression model.
# (§6) Viability is expressed as % of untreated cells. […]
# [2] = test system: HER2-negative MCF-7 cells; assay: In vitro cell viability assay (Cell-Titer Glo Luminescence), HER2-negative cells; assay type: cell-based; conditions: 96 h incubation, 200-0.1 nM free AHX-DM1, 3 fold dilutions
# Description: as §1, §2, §3, §4, §5, §6
smiles,measurement,setting,value
COc1cc2cc(c1Cl)N(C)C(=O)C[C@H](OC(=O)[C@H](C)N(C)C(=O)CCCCCN)[C@]1(C)O[C@H]1[C@H](C)[C@@H]1C[C@@](O)(NC(=O)O1)[C@H](OC)/C=C/C=C(\C)C2 [AHX-DM1],IC50,[1],3.4 nM
same,IC50,[2],36.3 nM
